Laboratory results: patent publication US8211714B2, “Characterization of molecules” (Analiza, Inc., priority 2001, dated 2012)

Key:
[1] = molecular target: T1, hen egg white lysozyme (Gallus gallus, UniProt P00698); assay: Partitioning of hen egg white lysozyme and its mixtures with binding partners in aqueous two-phase systems; format: physicochemical; conditions: for Partition coefficient K-value, Dex-PEG system: pH 7.4; for Partition coefficient K-value, Dex-Ficoll system / Partition coefficient K-value, Dex-Ficoll-Na2SO4 system: pH 8.6
T1 construct: Lysozyme from hen egg white; purchased Sigma Chemical Company (St. Louis, Mo., USA); host or cells: isolated from hen egg white
Description: Glucose and N-acetyl-D-glucosamine were purchased from USB Corporation (Cleveland, Ohio, USA) and used without further purification. Stock solutions of lysozyme in water were prepared at a concentration of 5.0 mg/ml. N,N′-Diacetylchitobiose and N,N′,N″-triacetylchitotriose were dissolved at a concentration of 10 mg/ml and mixed with the protein solution in ratios appropriate to provide protein:ligand molecular ratios of 1:1. Stock solutions of lysozyme and of the lysozyme mixtures with ligands were added to an aqueous two-phase system as described below.

[2] = molecular target: T2, bovine β-lactoglobulin (Bos taurus, UniProt P02754); assay: Partitioning of bovine β-lactoglobulin with binding partners in aqueous two-phase systems; conditions: for Partition coefficient K-value, Dex-Ficoll system: 8.88 wt.% Dextran-64, 12.86 wt.% Ficoll-400, 0.01 M sodium phosphate buffer pH 8.6; for Partition coefficient K-value, Dex-Ficoll system / Partition coefficient K-value, Dex-Ficoll-NaSCN system / Partition coefficient K-value, Dex-PEG system: protein:binding partner 1:1; for Partition coefficient K-value, Dex-Ficoll-NaSCN system: 10.98 wt.% Dextran-64, 15.95 wt.% Ficoll-400, […] NaSCN, 0.01 M sodium phosphate buffer pH 8.6; for Partition coefficient K-value, Dex-PEG system: 12.33 wt.% Dextran-64, 6.05 wt.% PEG-6000, 0.15M NaCl, 0.01 M sodium phosphate buffer pH 7.4; for Partition coefficient K-value, PEG/Phosphate system: 13.75 wt.% PEG-600, 21.00 wt.% sodium/potassium phosphate buffer pH 6.8, protein:binding partner molecular ratio 1:1; for effect of binding on the protein K-value: all the systems used
T2 sequence (P02754 17-178): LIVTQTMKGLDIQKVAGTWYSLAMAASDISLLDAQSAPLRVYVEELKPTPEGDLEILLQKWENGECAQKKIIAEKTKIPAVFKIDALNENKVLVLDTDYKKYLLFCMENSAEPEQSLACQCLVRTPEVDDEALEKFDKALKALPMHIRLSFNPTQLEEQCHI
Description: β-Lactoglobulin from bovine milk, retinol, nitrophenyl phosphate and bromoethanol were purchased from Sigma Chemical Company (St. Louis, Mo., USA) and used without further purification. A stock solution of β-lactoglobulin in water was prepared at a concentration of 10.0 mg/ml. Nitrophenyl phosphate, retinol, and bromoethanol were dissolved in the protein stock solutions in the molecular ratios as indicated in Table 1. These protein/binding partner solutions were subjected to partitioning in a series of different aqueous two-phase systems, also as indicated below.
The aqueous two-phase system contained 13.75 wt. % PEG-600 (molecular weight of about 600) and 21.00 wt. % sodium/potassium phosphate buffer (pH 6.8). Each system was prepared by mixing the appropriate amounts of stock polymer and buffer solutions dispensed by liquid handling workstation Hamilton ML-2200 into a 1.2 mL microtube. A total volume of 800 μL was dispensed to the microtube. A varied amount (40, 80, 120, 160, and 200 μL) of the β-lactoglobulin solution or that of a mixture of a given ratio and the corresponding amount (160, 120, 80, 40, and 0.0 μl) of water were added to a system. The ratio between the volumes of the two phases of each system of a final volume of 1.00 mL was as 1:1. The system was shaken vigorously and then centrifuged for 30 min. at about 4000 rpm to speed resolution of the two phases. Tubes were then taken from the centrifuge, aliquots of a given volume (100 μl for direct spectrophotometric analysis and 150 μl for fluorescence analysis) from the top and the bottom phases were withdrawn in duplicate. Each aliquot was diluted, mixed with appropriate reagents, and used for analyzed as described below.
The other aqueous two-phase system contained 8.88 wt. % Dextran-64 (molecular weight of about 64,000), 12.86 wt. % Ficoll-400 (molecular weight of about 400,000) and 0.01 M sodium phosphate buffer (pH 8.6). Each system was prepared by mixing the appropriate amounts of stock polymer and buffer solutions dispensed by liquid handling workstation Hamilton ML-2200 into a microtube of a total volume of 1.2 mL up to a total volume of a system of 820 μL. A varied amount (40, 80, 120, and 160 μl) of the β-lactoglobulin solution or that of a mixture of a given ratio and the corresponding amount (140, 100, 60, and 20 μl) of water were added to each system. The ratio between the volumes of the two phases of each system of a final volume of 1.00 mL was as 1:1. The system was shaken vigorously and centrifuged for 30 min. at about 4000 rpm to speed the resolution of the phases. Tubes were taken out of the centrifuge, and aliquots of a given volume (100 μl for direct spectrophotometric analysis and 150 μl for fluorescence analysis) from the top and the bottom phases were withdrawn in duplicate and each diluted and mixed with appropriate reagents as indicated below and used for further analysis performed as described below.
The other aqueous two-phase system contained 10.98 wt. % Dextran-64 (molecular weight of about 64,000), 15.95 wt. % Ficoll-400 (molecular weight of about 400,000), 0.24M NaSCN, and 0.01 M sodium phosphate buffer (pH 8.6). Each system was prepared by mixing the appropriate amounts of stock polymer, salt, and buffer solutions dispensed by liquid handling workstation Hamilton ML-2200 into a microtube of a total volume of 1.2 mL up to a total volume of a system of 920 μL. A varied amount (20, 40, 60, and 80 μl) of the β-lactoglobulin solution or that of a mixture of a given ratio and the corresponding amount (60, 40, 20, and 0 μl) of water were added to a system. The ratio between the volumes of the two phases of each system of a final volume of 1.00 mL was as 1:1. The system was vigorously shaken and centrifuged for 30 min. at about 4000 rpm in a centrifuge with a bucket rotor to speed the phase settling.

[3] = Partitioning of human, bovine and porcine insulin in aqueous two-phase systems; format: physicochemical; conditions: pH 7.4
Description: Human recombinant insulin was purchased from ICN Biomedicals Inc. (Aurora, Ohio, USA), bovine and porcine insulins were purchased from Calbiochem Corporation (San Diego, Calif., USA) and used without further purification. […] Stock solutions of all insulins in 0.009M HCl were prepared and titrated with 0.01M NaOH to pH 6.0 with the final protein concentration of ca. 1.0 mg/ml. Stock solution of human insulin, stock solution of porcine insulin, and stock solution of bovine insulin were added to an aqueous two-phase system as described below.

T1 sequence (P00698 19-147): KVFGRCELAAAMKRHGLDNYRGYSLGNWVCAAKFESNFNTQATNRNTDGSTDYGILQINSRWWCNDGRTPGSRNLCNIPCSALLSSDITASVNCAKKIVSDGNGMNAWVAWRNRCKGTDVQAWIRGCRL

Molecule	Partition coefficient K-value, PEG-3350-Phosphate system [1]	Partition coefficient K-value, Dex-PEG system [1]	Partition coefficient K-value, Dex-Ficoll system [1]	Partition coefficient K-value, Dex-Ficoll-Na2SO4 system [1]	Partition coefficient K-value, Dex-Ficoll system [2]	Partition coefficient K-value, Dex-Ficoll-NaSCN system [2]	Partition coefficient K-value, Dex-PEG system [2]	Partition coefficient K-value, PEG/Phosphate system [2]	also measured
CC(=O)N[C@H]1[C@H](O[C@H]2[C@H](O)[C@@H](NC(C)=O)C(O)O[C@@H]2CO)O[C@H](CO)[C@@H](O)[C@@H]1O (stereo partly drawn) [N,N′-Diacetylchitobiose]	1.311 ± 0.013	2.563 ± 0.032	0.826 ± 0.001	1.177 ± 0.009					
OCCBr					0.848 ± 0.009	0.486 ± 0.005	0.183 ± 0.001	1.904 ± 0.013	effect of binding on the protein K-value [2]: decreases
O=[N+]([O-])c1ccc(OP(=O)(O)O)cc1					0.823 ± 0.018	0.420 ± 0.001	0.103 ± 0.001	1.714 ± 0.012	effect of binding on the protein K-value [2]: decreases
CC(=O)N[C@H]1[C@H](O[C@H]2[C@H](O)[C@@H](NC(C)=O)C(O)O[C@@H]2CO)O[C@H](CO)[C@@H](O[C@@H]2O[C@H](CO)[C@@H](O)[C@H](O)[C@H]2NC(C)=O)[C@@H]1O (stereo partly drawn) [N,N′,N″-Triacetylchitotriose]	0.461 ± 0.006	2.033 ± 0.052	0.803 ± 0.004	1.106 ± 0.007					
hen egg white lysozyme: Lysozyme from hen egg white (Sigma); protein alone, row 'None' of Table 2	2.278 ± 0.006	2.728 ± 0.010	0.890 ± 0.007	1.239 ± 0.008					
Retinol acetate					0.812 ± 0.006	0.468 ± 0.002	0.196 ± 0.001	1.858 ± 0.016	effect of binding on the K-value of the protein ([2]; Dex-Ficoll system): reduces; effect of binding on the K value of the protein ([2]; PEG-Phosphate, Dex-PEG, and Dex-Ficoll-NaSCN systems): increases
CC(=O)N[C@H]1C(O)O[C@H](CO)[C@@H](O)[C@@H]1O (stereo partly drawn) [N-Acetyl-D-glucosamine]	2.402 ± 0.002	2.860 ± 0.035	0.818 ± 0.003	1.214 ± 0.010					
Porcine Insulin: porcine insulin (Calbiochem); differs from human insulin by Ala in position B30									Partition coefficient K-value, Dex-Ficoll-NaCl—NaPB [3]: 1.350 ± 0.015; Partition coefficient K-value, Dex-Ficoll-NaSCN—NaPB [3]: 0.911 ± 0.006; Partition coefficient K-value, Dex-PEG-NaClO4—NaPB [3]: 0.656 ± 0.020; Partition coefficient K-value, Dex-PEG-NaSCN—NaPB [3]: 1.514 ± 0.019
